Data as given in patent EP0600782A1, “C-11 modified pradimicin derivatives” (priority 1992, dated 1994).
Read-outs that look alike come from different tables or passages of the source.

How the values were obtained:
[1] = test system: Cryptococcus neoformans IAM 4514; assay: In vitro antifungal activity (MIC), agar dilution method, 11-xylosyl precursors; type: cell-based; conditions: 10^6 cells/ml, 28°C, 40 hrs
Description: (§1) The in vitro antifungal activities of pradimicins T1 and T2 and 11-0-dexylosylpradimicin T1 were determined by the agar dilution method on yeast morphology agar containing 1/15M phosphate buffer (pH 7.0).

[2] = test system: Candida tropicalis 85-8 (Kitasato); assay: as above; type: cell-based; conditions: yeast morphology agar + 1/15M phosphate buffer (pH 7.0), 10^6 cells/ml, 28°C, 40 hrs
Description: as §1

[3] = test system: Candida albicans 83-2-14 (Juntendo); assay: as above; type: cell-based; conditions: yeast morphology agar + 1/15M phosphate buffer (pH 7.0), 10^6 cells/ml, 28°C, 40 hrs
Description: as §1

[4] = test system: Candida albicans ATCC 38247; assay: as above; type: cell-based; conditions: 10^6 cells/ml, 28°C, 40 hrs
Description: as §1

[5] = test system: Trichophyton mentagrophytes 4329; assay: as above; type: cell-based; conditions: yeast morphology agar + 1/15M phosphate buffer (pH 7.0), 10^7 cells/ml, 28°C, 60 hrs
Description: as §1

[6] = test system: Aspergillus fumigatus IAM 2034; assay: as above; type: cell-based; conditions: 10^6 cells/ml, 28°C, 40 hrs
Description: as §1

[7] = test system: Candida albicans ATCC 32354 (B311); assay: as above; type: cell-based; conditions: 10^6 cells/ml, 28°C, 40 hrs
Description: as §1

[8] = test system: Cryptococcus neoformans D49; assay: as above; type: cell-based; conditions: yeast morphology agar + 1/15M phosphate buffer (pH 7.0), 10^6 cells/ml, 28°C, 40 hrs
Description: as §1

[9] = test system: Candida albicans A9540; assay: as above; type: cell-based; conditions: yeast morphology agar + 1/15M phosphate buffer (pH 7.0), 10^6 cells/ml, 28°C, 40 hrs
Description: as §1

[10] = test system: Saccharomyces cerevisiae ATCC 9763; assay: as above; type: cell-based; conditions: 10^6 cells/ml, 28°C, 40 hrs
Description: as §1

[11] = test system: Candida tropicalis IFO 10241; assay: as above; type: cell-based; conditions: 10^6 cells/ml, 28°C, 40 hrs
Description: as §1

[12] = Acute toxicity in mice after a single intravenous dose; type: in vivo
Description: (§2) Pradimicins T1 and T2 were evaluated for in vivo efficacy against a Candida albicans A9540 systemic infection in male ICR mice (20-24 g body weight) as described by Oki et al. in "Water-soluble pradimicin derivatives, synthesis and antifungal evaluation of N,N,-dimethyl pradimicins", J. Antibiotics 43:1230-1235, 1990. Five mice at each dose level were challenged intravenously with ten times the 50% lethal dose of the pathogen suspended in saline. Antibiotics were intravenously administered once immediately after the fungal challenge. Infection control animals (n=10) died from 7 to 12 days. The 50% protective dose (PD₅₀) was calculated from the survival rate 20 days after the fungal infection. The acute toxicity of pradimicins T1 and T2 was determined in mice after a single intravenous dose.

[13] = test system: Candida albicans A9540 systemic infection; assay: In vivo efficacy against systemic infection in mice; parameters: species or system male ICR mice; conditions: for ED50: Candida albicans, iv, 480 h, read-out: PD50; for PD50: C. albicans A9540 systemic infection, male ICR mice, single intravenous dose immediately after challenge, survival rate 20 days after infection
Description: as §2

[14] = IAM4514, yeast morphology agar + 1/15M phosphate buffer (pH 7.0), read-out: MIC
[15] = ATCC38247, yeast morphology agar + 1/15M phosphate buffer (pH 7.0), read-out: MIC
[16] = IAM2034, yeast morphology agar + 1/15M phosphate buffer (pH 7.0), read-out: MIC
[17] = ATCC32354, yeast morphology agar + 1/15M phosphate buffer (pH 7.0), read-out: MIC
[18] = ATCC9763, yeast morphology agar + 1/15M phosphate buffer (pH 7.0), read-out: MIC
[19] = IFO10241, yeast morphology agar + 1/15M phosphate buffer (pH 7.0), read-out: MIC
[20] = yeast morphology agar + 1/15M phosphate buffer (pH 7.0)

## Cc1cc2c(c(O)c1C(=O)NCC(=O)O)-c1c(cc3c(c1O)C(=O)c1cc(O)cc(O)c1C3=O)[C@H](O)[C@H]2O[C@@H]1O[C@H](C)[C@H](O)[C@H](O[C@@H]2OC[C@@H](O)[C@H](O)[C@H]2O)[C@H]1O [11-O-Dexylosyl-pradimicin T1]
[1]; [14]
  MIC: 6.3 µg/mL
[2]; read-out: MIC
  MIC: 12.5 µg/mL
[3]; read-out: MIC
  MIC: 3.1 µg/mL
[4]; [15]
  MIC: 3.1 µg/mL
[5]; read-out: MIC
  MIC: 12.5 µg/mL
[6]; [16]
  MIC: 25 µg/mL
[7]; [17]
  MIC: 3.1 µg/mL
[8]; read-out: MIC
  MIC: 6.3 µg/mL
[9]; read-out: MIC
  MIC: 6.3 µg/mL
[10]; [18]
  MIC: 3.1 µg/mL
[11]; [19]
  MIC: 12.5 µg/mL

## C[C@@H]1[C@H](O)[C@@H](C)/C=C/C=C/C=C/C=C/C=C/C=C/C=C/[C@H](O[C@@H]2O[C@H](C)[C@@H](O)[C@H](N)[C@@H]2O)C[C@@H]2O[C@](O)(C[C@@H](O)C[C@@H](O)[C@H](O)CC[C@@H](O)C[C@@H](O)CC(=O)O[C@H]1C)C[C@H](O)[C@H]2C(=O)O [Amphotericin B, reference compound]
[12]; mouse, in vivo, read-out: LD50
  LD50: 4.5 mg/kg
[13]
  ED50: 0.2 mg/kg

## CC(=O)N1CCN(c2ccc(OCC3COC(Cn4ccnc4)(c4ccc(Cl)cc4Cl)O3)cc2)CC1 (centres unmarked) [Ketoconazole, reference compound]
[13]
  ED50: > 50 mg/kg
[1]; [14]
  MIC: 0.4 µg/mL
[2]; read-out: MIC
  MIC: 100 µg/mL
[4]; [15]
  MIC: 25 µg/mL
[5]; read-out: MIC
  MIC: 0.8 µg/mL
[6]; [16]
  MIC: 3.1 µg/mL
[7]; [17]
  MIC: 50 µg/mL
[8]; read-out: MIC
  MIC: 0.8 µg/mL
[9]; read-out: MIC
  MIC: 50 µg/mL
[10]; [18]
  MIC: 50 µg/mL
[11]; [19]
  MIC: 50 µg/mL

## Pradimicin T1
[12]
  LD50: 300 mg/kg
[13]
  PD50: 27 mg/kg
[1]; [20]
  MIC: 3.1 µg/mL
[2]
  MIC: 25 µg/mL
[3]
  MIC: 6.3 µg/mL
[4]; [20]
  MIC: 1.6 µg/mL
[5]
  MIC: 6.3 µg/mL
[6]; [20]
  MIC: 6.3 µg/mL
[7]; [20]
  MIC: 6.3 µg/mL
[8]
  MIC: 3.1 µg/mL
[9]
  MIC: 6.3 µg/mL
[10]; [20]
  MIC: 3.1 µg/mL
[11]; [20]
  MIC: 12.5 µg/mL

## Pradimicin T2
[12]
  LD50: >600 mg/kg
[13]
  PD50: >50 mg/kg
[1]; [20]
  MIC: 6.3 µg/mL
[2]
  MIC: 6.3 µg/mL
[3]
  MIC: 3.1 µg/mL
[4]; [20]
  MIC: 1.6 µg/mL
[5]
  MIC: 50 µg/mL
[6]; [20]
  MIC: >100 µg/mL
[7]; [20]
  MIC: 3.1 µg/mL
[8]
  MIC: 6.3 µg/mL
[9]
  MIC: 3.1 µg/mL
[10]; [20]
  MIC: 0.8 µg/mL
[11]; [20]
  MIC: 6.3 µg/mL
